SMILES strings stand for the structures.

Type in all cases: in vivo
For assay [1], the system named is Echinochloa crus-galli. Description: Test Example 1: herbicidal effect test by treatment of rice paddy soil (immediately after seeding). Conditions: 120 g/10a active ingredient, dry weight vs untreated area, 14 days after treatment. The gist of the method: (§1)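 Pre-emergence paddy water application, 120 g a.i./10 ares, applied immediately post-seeding into ~3 cm flood; glasshouse; duplicate pots; dry weight at 14 d → % inhibition = (1 − treated/untreated) × 100.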

Assay [2] deals with Scirpus juncoides. Described as above. To be noted: 120 g/10a active ingredient, dry weight vs untreated area, 14 days after treatment. Summed up:
as §1

Assay [3] relates to broad leaf weeds (Lindernia pyxidaria and Monochoria vaginalis). The assay is described as above. To be noted: 120 g/10a active ingredient, dry weight vs untreated area, 14 days after treatment. Summed up:
as §1

Assay [4] deals with Echinochloa crus-galli. As to the kind of experiment: Test Example 2: herbicidal effect test by treatment during growing period in paddy rice cultivation (seven days after seeding). To be noted: 120 g/10a active ingredient, assessed 14 days after treatment, dry weight vs untreated area. Summed up:
(§2)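 Greenhouse flooded-pot test, seeds sown in puddled paddy soil; emulsion applied into water 7 d after seeding, 120 g a.i./10 a. Dry-weight-based herbicidal rate at 14 d, n=2.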

The subject of assay [5] is Scirpus juncoides. Described as above. Conditions: 120 g/10a active ingredient, assessed 14 days after treatment, dry weight vs untreated area. Summed up:
as §2

In assay [6] the test system is broad leaf weeds (Lindernia pyxidaria and Monochoria vaginalis). The assay is described as above. Conditions: 120 g/10a active ingredient, assessed 14 days after treatment, dry weight vs untreated area. The gist of the method:
as §2

Assay [7] concerns Amaranthus viridis. As to the kind of experiment: Test Example 3: herbicidal effect test by treatment of dry field farming soil (one day after seeding). To be noted: 120 g/10a active ingredient, evaluated 14 days after treatment. Summed up:
(§3)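 Compound emulsions are sprayed on the soil surface one day after sowing (120 g a.i. per 10 ares) before weeds emerge. Effect is expressed as percent dry-weight reduction versus untreated controls 14 days post-treatment.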

The subject of assay [8] is Chenopodium album. The assay is described as above. To be noted: 120 g/10a active ingredient, evaluated 14 days after treatment. Summed up: as §3
The test system of assay [9] is Echinochloa crus-galli. The assay is described as above. Conditions: 120 g/10a active ingredient, evaluated 14 days after treatment. The gist of the method: as §3
For assay [10], the system named is southern crabgrass. The assay is described as above. Conditions: 120 g/10a active ingredient, evaluated 14 days after treatment. Summed up: as §3
In assay [11] the test system is Amaranthus viridis. Description: Test Example 4: herbicidal effect test by treatment of leave and stem in dry field farming (seven days after seeding). To be noted: 120 g/10a active ingredient; emulsion sprayed seven days after seeding; evaluated 14 days after treatment. The gist of the method: (§4)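 Weeds were seeded at 20 seeds per species into the top 1 cm of alluvial upland soil in pots, then sprayed 7 days after seeding with water-diluted emulsifiable concentrate at 100 L/10 a, giving 120 g active ingredient/10 a. Duplicate pots; herbicidal rate (%) was 14 days post-treatment, from dry weight versus untreated.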

The test system of assay [12] is Chenopodium album. The assay is described as above. To be noted: 120 g/10a active ingredient; emulsion sprayed seven days after seeding; evaluated 14 days after treatment. Summed up:
as §4

The subject of assay [13] is Echinochloa crus-galli. The assay is described as above. To be noted: 120 g/10a active ingredient; emulsion sprayed seven days after seeding; evaluated 14 days after treatment. Summed up: as §4
In assay [14] the test system is southern crabgrass. The assay is described as above. To be noted: 120 g/10a active ingredient; emulsion sprayed seven days after seeding; evaluated 14 days after treatment. The gist of the method:
as §4

In the case of `Cc1c(Cc2ccccc2NS(=O)(=O)C(F)(F)F)c(=O)on1CC1(C)CC1` [Compound 1-145], the “Herbicidal rate (%) Echinochloa crus-galli” value amounted to 100% in [1] and 90% in assay [4]. Besides, the “Herbicidal rate (%) Scirpus juncoides” value in assay [2] was determined as 100%; in assay [5] it was 80%. Besides, the “Herbicidal rate (%) Lindernia pyxidaria” value came out at 100% in [3] and 60% in assay [6]. Also, the entries for the “Herbicidal rate (%) Monochoria vaginalis” value in assay [3] and in [6] were 100% and 80%, respectively. Moreover, the “herbicidal rate, Amaranthus viridis” value in assay [7] was found to be 40%. The “herbicidal rate, Chenopodium album” value in assay [8] came out at 40%. In assay [9], the “herbicidal rate, Echinochloa crus-galli” value is 90%. Further, in [10], the “herbicidal rate, southern crabgrass” value is given as 80%. In [11], the “herbicidal effect (herbicidal rate), Amaranthus viridis” value (from here on “herbicidal effect … Amaranthus viridis”) is recorded as 0%. In addition, the “herbicidal effect (herbicidal rate), Chenopodium album” value (“herbicidal effect … Chenopodium album” for short) in assay [12] is on record as 40%. The “herbicidal effect (herbicidal rate), Echinochloa crus-galli” value in assay [13] is 90%. For the same compound, in [14], the “herbicidal effect (herbicidal rate), southern crabgrass” value (“herbicidal effect … southern crabgrass” below) was 50%.
Take `Cc1c(Cc2ccccc2NS(=O)(=O)C(F)(F)F)c(=O)on1CC1CCCCC1` [Compound 1-146]: the “Herbicidal rate (%) Echinochloa crus-galli” value in [1] and in [4] was 100% each time. In addition, the “Herbicidal rate (%) Scirpus juncoides” value in assay [2] was determined as 100%; in assay [5], 90%. Besides, the “Herbicidal rate (%) Lindernia pyxidaria” value in assay [3] was 100%; in assay [6] it was 70%. Moreover, the “Herbicidal rate (%) Monochoria vaginalis” value is 100% in assay [3] and 90% in [6]. The “herbicidal rate, Amaranthus viridis” value in assay [7] was determined as 90%. Besides, the “herbicidal rate, Chenopodium album” value in [8] was found to be 90%. Further, the “herbicidal rate, Echinochloa crus-galli” value in assay [9] came to 100%. For the same compound, the “herbicidal rate, southern crabgrass” value in assay [10] was determined as 100%. Also, the “herbicidal effect … Amaranthus viridis” value in [11] was 50%. Further, in [12], the “herbicidal effect … Chenopodium album” value came to 40%. The “herbicidal effect (herbicidal rate), Echinochloa crus-galli” value in assay [13] was 80%. The “herbicidal effect … southern crabgrass” value in assay [14] was 40%.
Turning to `COCCn1oc(=O)c(Cc2ccccc2NS(=O)(=O)C(F)(F)F)c1C` [Compound 1-148], the “Herbicidal rate (%) Echinochloa crus-galli” value in assay [1] and in [4] was 90% throughout. The “Herbicidal rate (%) Scirpus juncoides” value in assay [2] was found to be 100%; in [5], 90%. The “Herbicidal rate (%) Lindernia pyxidaria” value was found to be 100% in assay [3] and 60% in [6]. The “Herbicidal rate (%) Monochoria vaginalis” value was determined as 90% in assay [3] and 80% in assay [6]. The “herbicidal rate, Amaranthus viridis” value in [7] is given as 80%. The “herbicidal rate, Chenopodium album” value in assay [8] is reported as 80%. Also, in assay [9], the “herbicidal rate, Echinochloa crus-galli” value came to 100%. The “herbicidal rate, southern crabgrass” value in assay [10] was 100%. Also, the “herbicidal effect … Amaranthus viridis” value in assay [11] worked out at 40%. Further, in assay [12], the “herbicidal effect … Chenopodium album” value is 40%. The “herbicidal effect (herbicidal rate), Echinochloa crus-galli” value in assay [13] is 90%. Also, the “herbicidal effect … southern crabgrass” value in assay [14] is on record as 80%.
As for `Cc1c(Cc2ccccc2NS(=O)(=O)C(F)(F)F)c(=O)on1Cc1ccccc1` [Compound 1-180], the “Herbicidal rate (%) Echinochloa crus-galli” value is on record as 90% in assay [1] and 70% in [4]. Further, the “Herbicidal rate (%) Scirpus juncoides” value in assay [2] and in assay [5] was 90% each time. Also, the “Herbicidal rate (%) Lindernia pyxidaria” value in assay [3] stood at 90%; in assay [6] it was 80%. In addition, the “Herbicidal rate (%) Monochoria vaginalis” value in assay [3] and in assay [6] was 90% each time. In [7], the “herbicidal rate, Amaranthus viridis” value amounted to 30%. In assay [8], the “herbicidal rate, Chenopodium album” value was 30%. In addition, the “herbicidal rate, Echinochloa crus-galli” value in assay [9] is 80%. Further, the “herbicidal rate, southern crabgrass” value in assay [10] is on record as 80%. Also, the “herbicidal effect … Amaranthus viridis” value in [11] is recorded as 0%. Further, the “herbicidal effect … Chenopodium album” value in assay [12] is 40%. Further, the “herbicidal effect (herbicidal rate), Echinochloa crus-galli” value in [13] was 50%. Moreover, the “herbicidal effect … southern crabgrass” value in assay [14] is reported as 50%.
With `Cc1c(Cc2ccccc2NS(=O)(=O)C(F)(F)F)c(=O)on1Cc1ccc(F)cc1` [Compound 1-183], the “Herbicidal rate (%) Echinochloa crus-galli” value in assay [1] amounted to 100%; in assay [4] it was 80%. The “Herbicidal rate (%) Scirpus juncoides” value in [2] and in assay [5] was 100% in each case. In addition, the “Herbicidal rate (%) Lindernia pyxidaria” value in assay [3] and in assay [6] was 100% in each case. Moreover, the “Herbicidal rate (%) Monochoria vaginalis” value in assay [3] and in assay [6] was 100% in each case. Also, the “herbicidal rate, Amaranthus viridis” value in [7] is on record as 50%. Further, the “herbicidal rate, Chenopodium album” value in assay [8] came to 60%. Also, the “herbicidal rate, Echinochloa crus-galli” value in assay [9] is on record as 90%. Also, the “herbicidal rate, southern crabgrass” value in assay [10] was determined as 90%. Further, the “herbicidal effect … Amaranthus viridis” value in [11] is 40%. Besides, in [12], the “herbicidal effect … Chenopodium album” value was 50%. Also, the “herbicidal effect (herbicidal rate), Echinochloa crus-galli” value in assay [13] amounted to 90%. The “herbicidal effect … southern crabgrass” value in [14] is 50%.
Take `Cc1ccc(C(C)n2oc(=O)c(Cc3ccccc3NS(=O)(=O)C(F)(F)F)c2C)cc1` (stereo not shown) [Compound 1-208]: the “Herbicidal rate (%) Echinochloa crus-galli” value in assay [1] and in [4] was 90% in each case. Further, the “Herbicidal rate (%) Scirpus juncoides” value in [2] turned out to be 90%; in [5], 80%. In addition, the “Herbicidal rate (%) Lindernia pyxidaria” value in assay [3] came to 80%; in assay [6], 60%. Besides, the “Herbicidal rate (%) Monochoria vaginalis” value in assay [3] and in assay [6] was 90% each time. The “herbicidal rate, Amaranthus viridis” value in assay [7] worked out at 40%. For the same compound, in assay [8], the “herbicidal rate, Chenopodium album” value is given as 40%. Also, in [9], the “herbicidal rate, Echinochloa crus-galli” value is 100%. In addition, in [10], the “herbicidal rate, southern crabgrass” value was determined as 50%. The “herbicidal effect … Amaranthus viridis” value in [11] amounted to 40%. Further, the “herbicidal effect … Chenopodium album” value in [12] is 40%. For the same compound, the “herbicidal effect (herbicidal rate), Echinochloa crus-galli” value in assay [13] is reported as 90%. In addition, the “herbicidal effect … southern crabgrass” value in [14] is on record as 0%.
Regarding `CCC(c1ccccc1)n1oc(=O)c(Cc2ccccc2NS(=O)(=O)C(F)(F)F)c1C` (stereo not shown) [Compound 1-211], the “Herbicidal rate (%) Echinochloa crus-galli” value in assay [1] and in assay [4] was 90% each time. Moreover, the “Herbicidal rate (%) Scirpus juncoides” value in assay [2] and in [5] was 90% each time. Moreover, the figures for the “Herbicidal rate (%) Lindernia pyxidaria” value in [3] and in [6] were 90% and 60%, respectively. Besides, the “Herbicidal rate (%) Monochoria vaginalis” value in assay [3] came to 90%; in [6], 80%. The “herbicidal rate, Amaranthus viridis” value in assay [7] turned out to be 0%. Further, the “herbicidal rate, Chenopodium album” value in [8] was 0%. For the same compound, the “herbicidal rate, Echinochloa crus-galli” value in assay [9] was found to be 90%. In addition, in assay [10], the “herbicidal rate, southern crabgrass” value worked out at 90%. Moreover, the “herbicidal effect … Amaranthus viridis” value in assay [11] is 40%. Moreover, the “herbicidal effect … Chenopodium album” value in assay [12] is 50%. Also, the “herbicidal effect (herbicidal rate), Echinochloa crus-galli” value in assay [13] was 90%. For the same compound, in assay [14], the “herbicidal effect … southern crabgrass” value turned out to be 60%.

The record behind these values is patent publication US11109593B2, “Isoxazolin-5-one derivative and herbicide containing same as active ingredient” (HOKKO CHEMICAL INDUSTRY CO., LTD., priority 2017, dated 2021).
